Our source for the % of control and % of inhibition values is ChEMBL document CHEMBL5465560, “Selectivity Literature for EUbOPEN Chemogenomic Library” (2024).

In assay [1] the target is T1, Mitogen-activated protein kinase kinase kinase kinase 2 (Homo sapiens) (UniProt Q12851).
T1 sequence (whole entry): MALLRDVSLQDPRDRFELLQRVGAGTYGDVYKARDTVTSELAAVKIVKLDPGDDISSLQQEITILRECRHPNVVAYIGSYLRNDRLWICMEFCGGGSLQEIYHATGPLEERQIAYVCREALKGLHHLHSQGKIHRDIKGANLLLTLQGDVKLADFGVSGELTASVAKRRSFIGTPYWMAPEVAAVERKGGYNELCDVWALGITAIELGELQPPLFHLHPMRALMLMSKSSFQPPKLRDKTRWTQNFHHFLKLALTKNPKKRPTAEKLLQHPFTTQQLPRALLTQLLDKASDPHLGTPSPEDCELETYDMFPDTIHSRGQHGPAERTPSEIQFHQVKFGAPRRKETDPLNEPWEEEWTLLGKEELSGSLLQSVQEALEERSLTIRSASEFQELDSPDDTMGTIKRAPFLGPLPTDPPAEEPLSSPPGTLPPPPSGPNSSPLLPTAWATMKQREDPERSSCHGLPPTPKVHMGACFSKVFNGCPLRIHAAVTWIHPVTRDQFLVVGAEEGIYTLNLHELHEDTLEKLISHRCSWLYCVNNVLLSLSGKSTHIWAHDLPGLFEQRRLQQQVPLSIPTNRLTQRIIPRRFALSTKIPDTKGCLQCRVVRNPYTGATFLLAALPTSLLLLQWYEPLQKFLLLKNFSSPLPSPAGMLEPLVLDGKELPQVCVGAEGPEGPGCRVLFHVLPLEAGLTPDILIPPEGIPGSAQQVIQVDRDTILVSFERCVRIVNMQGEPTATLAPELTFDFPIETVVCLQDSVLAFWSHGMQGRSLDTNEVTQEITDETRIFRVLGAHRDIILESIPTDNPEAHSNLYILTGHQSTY
Put plainly: Selectivity interaction (KinomeScan (DiscoverX)) EUB0001619a MAP4K2. The conditions noted are these: at 1 µM.

In assay [2] the target is T2, Serine/threonine-protein kinase LATS1 (Homo sapiens) (UniProt O95835).
T2 sequence (whole entry): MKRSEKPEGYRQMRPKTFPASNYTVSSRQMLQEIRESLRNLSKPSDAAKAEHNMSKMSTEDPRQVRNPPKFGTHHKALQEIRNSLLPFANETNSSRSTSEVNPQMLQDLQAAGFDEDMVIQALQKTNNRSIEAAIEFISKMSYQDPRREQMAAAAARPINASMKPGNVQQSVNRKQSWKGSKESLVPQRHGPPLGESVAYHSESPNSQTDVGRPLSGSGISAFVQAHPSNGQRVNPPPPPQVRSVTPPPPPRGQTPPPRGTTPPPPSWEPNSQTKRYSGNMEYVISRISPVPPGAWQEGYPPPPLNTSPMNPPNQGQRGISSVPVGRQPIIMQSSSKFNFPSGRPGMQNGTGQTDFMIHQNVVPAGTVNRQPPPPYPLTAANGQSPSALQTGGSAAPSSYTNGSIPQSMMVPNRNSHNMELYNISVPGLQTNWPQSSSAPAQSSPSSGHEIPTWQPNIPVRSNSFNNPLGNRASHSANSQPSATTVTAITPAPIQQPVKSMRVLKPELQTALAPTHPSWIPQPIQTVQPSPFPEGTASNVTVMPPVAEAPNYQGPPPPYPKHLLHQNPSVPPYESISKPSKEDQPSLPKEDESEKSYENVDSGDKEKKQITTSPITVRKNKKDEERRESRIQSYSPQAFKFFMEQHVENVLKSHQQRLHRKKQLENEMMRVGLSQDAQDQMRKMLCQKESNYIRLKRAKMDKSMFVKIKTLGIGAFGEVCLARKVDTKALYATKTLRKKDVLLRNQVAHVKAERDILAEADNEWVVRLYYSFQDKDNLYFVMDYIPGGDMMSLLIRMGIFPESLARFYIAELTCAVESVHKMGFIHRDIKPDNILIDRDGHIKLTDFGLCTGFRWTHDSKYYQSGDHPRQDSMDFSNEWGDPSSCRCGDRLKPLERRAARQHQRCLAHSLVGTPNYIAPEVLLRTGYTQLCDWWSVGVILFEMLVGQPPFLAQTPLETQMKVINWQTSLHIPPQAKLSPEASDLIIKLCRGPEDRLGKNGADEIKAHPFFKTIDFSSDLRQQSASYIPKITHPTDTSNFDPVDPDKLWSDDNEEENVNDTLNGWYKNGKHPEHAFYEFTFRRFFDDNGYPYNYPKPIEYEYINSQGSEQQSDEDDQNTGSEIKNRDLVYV
Put plainly: Selectivity interaction (ActivX KiNativ screen (kinase selectivity in THP-1 cell lysates)) EUB0000639a LATS1. In kind it is subcellular. The conditions noted are these: lysate, at 1 µM.

Assay [3] has as its target T3, Tyrosine-protein kinase TXK (Homo sapiens) (UniProt P42681).
T3 sequence (whole entry): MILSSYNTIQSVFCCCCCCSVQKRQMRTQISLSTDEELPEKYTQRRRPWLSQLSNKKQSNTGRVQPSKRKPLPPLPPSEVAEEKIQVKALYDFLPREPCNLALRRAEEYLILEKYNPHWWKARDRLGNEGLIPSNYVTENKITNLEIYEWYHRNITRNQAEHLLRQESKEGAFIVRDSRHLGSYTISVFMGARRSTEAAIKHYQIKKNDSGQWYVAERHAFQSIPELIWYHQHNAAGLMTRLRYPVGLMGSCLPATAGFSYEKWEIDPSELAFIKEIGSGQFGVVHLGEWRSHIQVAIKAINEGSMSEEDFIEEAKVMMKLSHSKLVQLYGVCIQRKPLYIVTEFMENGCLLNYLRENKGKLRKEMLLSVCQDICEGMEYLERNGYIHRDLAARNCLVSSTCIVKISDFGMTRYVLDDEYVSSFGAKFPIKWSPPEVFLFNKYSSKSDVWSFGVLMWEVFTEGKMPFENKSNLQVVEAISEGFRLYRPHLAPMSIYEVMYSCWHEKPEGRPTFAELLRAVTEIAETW
In words: Selectivity interaction (KinomeScan (DiscoverX)) EUB0000092b TXK. The conditions noted are these: at 10 µM.

Assay [4] deals with Tyrosine-protein kinase CSK (Homo sapiens) (UniProt P41240). Put plainly: Selectivity interaction (KinomeScan (DiscoverX)) EUB0001079a CSK. The conditions noted are these: at 1 µM.
Tyrosine-protein kinase CSK (Homo sapiens), sequence (P41240 2-450 limits assumed): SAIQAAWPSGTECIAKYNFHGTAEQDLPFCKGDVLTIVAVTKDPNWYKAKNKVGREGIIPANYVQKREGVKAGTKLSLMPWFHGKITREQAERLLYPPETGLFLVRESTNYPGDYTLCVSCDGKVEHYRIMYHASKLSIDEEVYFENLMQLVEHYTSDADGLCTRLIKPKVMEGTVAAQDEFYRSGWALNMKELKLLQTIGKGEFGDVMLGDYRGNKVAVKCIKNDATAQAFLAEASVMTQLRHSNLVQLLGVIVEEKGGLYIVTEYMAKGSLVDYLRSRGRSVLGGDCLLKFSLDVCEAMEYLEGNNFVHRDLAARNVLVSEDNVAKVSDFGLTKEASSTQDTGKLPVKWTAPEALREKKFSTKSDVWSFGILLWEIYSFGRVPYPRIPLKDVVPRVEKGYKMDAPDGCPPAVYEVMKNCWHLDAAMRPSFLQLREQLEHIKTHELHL

`N#Cc1cccc(-c2c[nH]c3ncnc(N4CCOCC4)c23)c1` returned a % of control in assay [1] of 3.4%. `CC[C@@H]1[C@H](F)C(=O)N[C@@H]1COc1nccc2cc(C(N)=O)c(OC)cc12` [ZIMLOVISERTIB]: the % of inhibition in assay [2] is -107%. In assay [3], `CCC(=O)N1CCN(c2ccc(-n3c(=O)ccc4cnc5ccc(-c6cnc7ccccc7c6)cc5c43)cc2C(F)(F)F)CC1` registered a % of control of 54%.

On to `Nc1cnc(N2CCc3cc(S(=O)(=O)Nc4c(F)cc(Cl)cc4F)cc(N4CCCC4=O)c32)nc1` [TP-020n], for which, in assay [4], the % of control turned out to be 99%.
